Source: patent US20170217964A1, “AMINOTETRAHYDROPYRAN DERIVATIVE USED AS DIPEPTIDYL PEPTIDASEIV INHIBITOR” (FUJIAN BORO MEDICAL CO., LTD., priority 2014, published 2017)

Legend:
DPP-4 enzyme = target: T1, DPP-4 enzyme (Homo sapiens, UniProt P27487); test: Test of the inhibition activity to the DPP-4 enzyme (fluorescence, substrate Gly-Pro-7-amido-4-methylcoumarin); format: biochemical; conditions: in vitro; compounds of the examples; read-out: DPP-4 inhibition ID50
T1 construct: purchased SIGMA
Text: Test of the inhibition activity of the compound of the present invention to the DPP-4 enzyme: […]

[1] = stability test of human liver microsomes; format: in vitro ADME

T1 sequence (P27487 whole entry, species assumed): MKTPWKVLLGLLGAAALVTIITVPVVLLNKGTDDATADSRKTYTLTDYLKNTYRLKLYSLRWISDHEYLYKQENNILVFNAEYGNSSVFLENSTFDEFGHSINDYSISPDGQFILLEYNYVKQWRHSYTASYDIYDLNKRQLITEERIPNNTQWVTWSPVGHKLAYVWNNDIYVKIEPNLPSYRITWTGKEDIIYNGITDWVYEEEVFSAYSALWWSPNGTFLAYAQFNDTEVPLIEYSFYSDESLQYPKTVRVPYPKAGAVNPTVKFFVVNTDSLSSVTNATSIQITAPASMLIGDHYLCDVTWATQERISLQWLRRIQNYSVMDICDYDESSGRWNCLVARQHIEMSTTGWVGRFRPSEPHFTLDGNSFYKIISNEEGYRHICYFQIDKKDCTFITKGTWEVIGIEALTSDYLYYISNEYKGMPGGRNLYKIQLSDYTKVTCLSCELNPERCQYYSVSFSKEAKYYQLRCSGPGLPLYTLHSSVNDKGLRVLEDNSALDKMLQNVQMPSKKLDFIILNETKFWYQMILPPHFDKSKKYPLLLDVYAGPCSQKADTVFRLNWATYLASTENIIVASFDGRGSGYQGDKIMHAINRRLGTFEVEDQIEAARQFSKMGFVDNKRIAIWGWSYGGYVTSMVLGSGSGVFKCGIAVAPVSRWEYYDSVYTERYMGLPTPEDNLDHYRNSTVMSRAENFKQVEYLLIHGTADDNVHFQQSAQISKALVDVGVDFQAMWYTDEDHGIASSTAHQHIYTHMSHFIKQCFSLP

IC50 (DPP-4 enzyme) [nM]	metabolism stability compared with MK-3102 [1]	Structure (SMILES)
0.5	better metabolism stability	N[C@H]1C[C@@H](N2Cc3cn(S(=O)(=O)N4CCOCC4)nc3C2)CO[C@@H]1c1cc(F)ccc1F [Compound 1, (2R, 3S, 5R)-2-(2,5-difluorophenyl)-5-[2-(morpholinesulfonyl)-2,6-dihydropyrrolo[3,4,-c]pyrazol-5(4H)-yl]tetrahydro-2H-pyran-3-amine]
0.8		N[C@H]1C[C@@H](N2Cc3cn(S(=O)(=O)N4CCCCC4)nc3C2)CO[C@@H]1c1cc(F)ccc1F [Compound 2, (2R, 3S, 5R)-2-(2,5-difluorophenyl)-5-[2-(piperidinesulfonyl)-2,6-dihydropyrrolo[3,4,-c]pyrazol-5(4H)-yl]tetrahydro-2H-pyran-3-amine]
0.3		N[C@H]1C[C@@H](N2Cc3cn(S(=O)(=O)N4CCCC4)nc3C2)CO[C@@H]1c1cc(F)ccc1F [Compound 3]
0.6	better metabolism stability	CN1CCN(S(=O)(=O)n2cc3c(n2)CN([C@H]2CO[C@H](c4cc(F)ccc4F)[C@@H](N)C2)C3)CC1 [Compound 4, (2R, 3S, 5R)-2-(2,5-difluorophenyl)-5-[2-(N-methylpiperazinesulfonyl)-2,6-dihydropyrrolo[3,4,-c]pyrazol-5(4H)-yl]tetrahydro-2H-pyran-3-amine]
0.2		N[C@H]1C[C@@H](N2Cc3cn(S(=O)(=O)N4CCN(C5CCCC5)CC4)nc3C2)CO[C@@H]1c1cc(F)ccc1F [Compound 5, (2R, 3S, 5R)-2-(2,5-difluorophenyl)-5-[2-(4-cyclopentylpiperazine-1-yl-sulfonyl)-2,6-dihydropyrrolo[3,4,-c]pyrazol-5(4H)-yl]tetrahydro-2H-pyran-3-amine]
0.5		N[C@H]1C[C@@H](N2Cc3cn(S(=O)(=O)N4CCC4)nc3C2)CO[C@@H]1c1cc(F)ccc1F [Compound 13, (2R, 3S, 5R)-2-(2,5-difluorophenyl)-5-[2-(azetidine-1-sulfonyl)-2,6-dihydropyrrolo[3,4,-c]pyrazol-5(4H)-yl]tetrahydro-2H-pyran-3-amine]
0.4		CC1CCN(S(=O)(=O)n2cc3c(n2)CN([C@H]2CO[C@H](c4cc(F)ccc4F)[C@@H](N)C2)C3)CC1 [Compound 14]
0.7		N[C@H]1C[C@@H](N2Cc3cn(S(=O)(=O)N4CC5CCCCC5C4)nc3C2)CO[C@@H]1c1cc(F)ccc1F (stereo partly drawn) [Compound 15, (2R, 3S, 5R)-2-(2,5-difluorophenyl)-5-[2-(perhydroindole-1 sulfonyl)-2,6-dihydropyrrolo[3,4,-c]pyrazol-5(4H)-yl]tetrahydro-2H-pyran-3-amine]
